These results are taken from ChEMBL document CHEMBL1201862, “PubChem BioAssay data set” (2004).

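All cell lines were grown in 96-well plates and treated with compound for 48 hours. Here, GI50 denotes the concentration required for 50% inhibition of growth.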 Activity calls are given as the source filed them. Cut-off read from the data, not from the text of the source: active = GI50 up to about 1.1 µM and inactive = higher.

Common to all, as to assay: DTP human tumour cell line panel, 48 h
For assay [1], the system named is 786-0.
For assay [2], the system named is A498.
The subject of assay [3] is CAKI-1.
The subject of assay [4] is CCRF-CEM.
Assay [5] concerns DU-145.
Assay [6] concerns HCC 2998.
Assay [7] has as its system HCT-116.
Assay [8] deals with HCT-15.
The test system of assay [9] is HT-29.
In assay [10] the test system is MDA-N.
Assay [11] deals with NCI-H522.
Assay [12] deals with SK-MEL-28.
Assay [13] deals with SK-MEL-2.
The subject of assay [14] is SN12C.
In assay [15] the test system is SR.
For assay [16], the system named is SW-620.
The subject of assay [17] is UO-31.
Assay [18] deals with HOP-62.
Assay [19] relates to LOX IMVI.
For assay [20], the system named is UACC-62.

The term GI50 denotes the concentration that inhibits growth by half.

Take `Nc1nc2ccc(OCC(O)CN3CCCCC3)cc2[n+]([O-])n1` (configuration not stated): the GI50 in assay [1], in [2], in assay [3], in assay [4], in assay [5] and in assay [6] was > 100 µM (inactive) each time. Besides, the GI50 in [7] is > 100 µM (inactive); in [8] it was more than 100 µM; in assay [9] it was > 100 µM (inactive); in [10] it was > 100 µM (inactive); in assay [11], > 100 µM (inactive); in assay [12] it was > 100 µM (inactive). For the same compound, the GI50 in [13], in assay [14], in assay [15], in [16] and in assay [17] was > 100 µM (inactive) throughout.
Consider `Cc1nc(N)c(N2CCN([N+](=O)[O-])CC2)c(O)n1`, for which the GI50 in assay [1], in assay [2], in assay [4], in assay [5], in assay [6] and in [7] was > 100 µM (inactive) in each case. The GI50 in [8] is more than 100 µM; in assay [18], > 100 µM (inactive); in [9] it was > 100 µM (inactive); in assay [19] it was > 100 µM (inactive); in [10] it was > 100 µM (inactive); in [11] it was > 100 µM (inactive). Moreover, the GI50 in [12], in assay [13], in assay [14], in [15], in assay [16] and in [17] was > 100 µM (inactive) throughout.
In the case of `COc1cc(NCc2ccc3nc(N)nc(N)c3c2C)cc(OC)c1OC`, the GI50 was 0.00106 µM (active) in assay [1]; 2.39 µM (inactive) in assay [2]; 0.194 µM (active) in assay [3]; 0.025 µM (active) in assay [4]; 0.00102 µM (active) in assay [5]; 0.109 µM (active) in [6]. Besides, the GI50 is 0.0352 µM (active) in assay [7]; 0.025 µM in assay [8]; 0.0286 µM (active) in [18]; 0.0267 µM (active) in [9]; 0.025 µM (active) in assay [19]; 0.0002 µM (active) in assay [10]. The concentration for 50% growth inhibition (GI50) is 0.313 µM (active) in assay [12]; 17.9 µM (inactive) in assay [13]; 0.0316 µM (active) in assay [14]; 0.000359 µM (active) in assay [15]; 0.025 µM (active) in [16]; 0.025 µM (active) in assay [20]. In addition, in assay [17], the GI50 is 1.05 µM (active).
For `CC1=NCC[N+]1(CCc1ccccc1)Cc1ccccc1` (configuration not stated), the GI50 in assay [1] was > 100 µM (inactive); in [2], 60.3 µM (inactive); in [4], 34.5 µM (inactive); in [5], > 100 µM (inactive); in assay [6], 35.7 µM (inactive); in [7], 49 µM (inactive). The GI50 in assay [8] was more than 100 µM; in [18] it was > 100 µM (inactive); in assay [9], 12.5 µM (inactive); in assay [19], 44.9 µM (inactive); in [10] it was 46.3 µM (inactive); in assay [11], 11.6 µM (inactive). Moreover, the GI50 in assay [12] is 64.6 µM (inactive); in assay [13], 27.7 µM (inactive); in assay [14], 45.5 µM (inactive); in assay [15] it was 13.4 µM (inactive); in assay [16] it was > 100 µM (inactive); in [20], 75.2 µM (inactive). For the same compound, the GI50 in assay [17] was > 100 µM (inactive).
Consider `CCCCCCCCCC[S+]([O-])CC(CO)NC(=O)/C=C/c1c(C)nc(O)nc1O` (configuration not stated), for which the GI50 is 10.9 µM (inactive) in [1]; 1.09 µM (active) in assay [2]; 0.136 µM (active) in [4]; 43.4 µM (inactive) in assay [5]; 0.244 µM (active) in [6]; 1.28 µM in [8]. Besides, the GI50 is 1.06 µM (active) in [18]; 1.36 µM (inactive) in assay [9]; 0.877 µM (active) in assay [19]; 25.1 µM (inactive) in [10]; 0.0938 µM (active) in [11]; 1.21 µM (inactive) in assay [12]. For the same compound, the GI50 in [13] was 0.721 µM (active); in [14], 0.126 µM (active); in assay [15], 65.2 µM (inactive); in assay [16], 0.535 µM (active); in assay [20] it was 0.628 µM (active); in assay [17], 1.28 µM (inactive).
As to `CC(C)=NC(C(=O)O)C(C)(C)S` (configuration not stated), the GI50 in assay [1], in assay [2], in assay [3], in [4], in [5] and in assay [7] was > 100 µM (inactive) throughout. For the same compound, the GI50 in assay [8] is more than 100 µM; in [18] it was > 100 µM (inactive); in [9] it was > 100 µM (inactive); in assay [19] it was > 100 µM (inactive); in assay [10], > 100 µM (inactive); in [11], > 100 µM (inactive). Moreover, the GI50 in assay [12], in [13], in [14], in assay [15], in assay [16] and in assay [20] was > 100 µM (inactive) throughout. Moreover, the GI50 in assay [17] was > 100 µM (inactive).
As to `COc1cc(O)c2c(O)c3c(=O)oc(C)cc3c(OC)c2c1` [PAEPALANTINE], the GI50 is 31.1 µM (inactive) in [1]; 61.7 µM (inactive) in assay [2]; 31 µM (inactive) in assay [3]; 21.4 µM (inactive) in assay [4]; 41.6 µM (inactive) in assay [5]; 20.6 µM (inactive) in assay [7]. Moreover, the 50% growth inhibitory concentration (GI50) is 28.3 µM in assay [8]; 30.3 µM (inactive) in assay [18]; 21.2 µM (inactive) in [9]; 27.4 µM (inactive) in [10]; 35.4 µM (inactive) in assay [11]; 25 µM (inactive) in [12]. In addition, the GI50 in assay [13] is 31.9 µM (inactive); in [14], 24.1 µM (inactive); in [15], 26.1 µM (inactive); in assay [16], 34.2 µM (inactive); in [20], 21.9 µM (inactive); in [17], 31.8 µM (inactive).
`CCOC(=O)N1CCC2(CC1)CC(=O)N(Nc1ccccc1)C2=O`: the GI50 in assay [1], in assay [2], in assay [3], in [4], in assay [5] and in [6] was > 100 µM (inactive) in each case. The GI50 in assay [7] was > 100 µM (inactive); in [8], more than 100 µM; in [18] it was > 100 µM (inactive); in assay [9], 90.2 µM (inactive); in assay [19], 98.4 µM (inactive); in assay [10], 78.3 µM (inactive). For the same compound, the GI50 is 74.3 µM (inactive) in assay [12]; > 100 µM (inactive) in assay [13]; > 100 µM (inactive) in [14]; 32.1 µM (inactive) in assay [15]; > 100 µM (inactive) in assay [16]; 32.1 µM (inactive) in assay [20]. In assay [17], the GI50 is 39.9 µM (inactive).
